# Data as given in US20140357512A1, “HISTONE DEACETYLASE (HDAC) BIOMARKERS IN MULTIPLE MYELOMA” (priority 2013, published 2014).
# Test system: human myeloma cell line MM.1S
# Experiment: Biological pathway analysis of SILAC biomarker peptides against pathway database (broadinstitute gsea)
# Method: Once biomarker peptides are identified for a specific drug by the SILAC method, the biomarker peptides may be compared to peptides/proteins in a biological pathway database in order to identify major biological pathways or functions implicated by the drug's action. A preferred pathway analysis website is at www dot broadinstitute dot org/gsea/index dot jsp.
# This example describes the biological pathway analysis that was performed on each of Compound A, Compound B, and Tubastatin A.
# Once biomarker peptides were identified for a specific drug (either Compound A, Compound B, or Tubastatin A) by the SILAC method in Example 1, the biomarker peptides were compared to peptides/proteins in the biological pathway database at www dot broadinstitute dot org/gsea/index dot jsp in order to identify major biological pathways or functions implicated by the drug's action.
smiles,measurement,setting,value
"O=C(CCCCCCNC(=O)c1cnc(N(c2ccccc2)c2ccccc2)nc1)NO [Compound A, 2-(diphenylamino)-N-(7-(hydroxyamino)-7-oxoheptyl)pyrimidine-5-carboxamide]",Observed: number of genes in pathway REACTOME_PACKAGING_OF_TELOMERE_ENDS,Pathway_size 48,35
same,"Ratio observed/pathway size, REACTOME_PACKAGING_OF_TELOMERE_ENDS",Pathway_size 48,0.7292
same,Observed: number of genes in pathway REACTOME_RNA_POL_I_PROMOTER_OPENING,Pathway_size 61,49
same,"Ratio observed/pathway size, REACTOME_RNA_POL_I_PROMOTER_OPENING",Pathway_size 61,0.8033
same,Observed: number of genes in pathway REACTOME_DEPOSITION_OF_NEW_CENPA_CONTAINING_NUCLEOSOMES_AT_THE_CENTROMERE,Pathway_size 64,34
same,"Ratio observed/pathway size, REACTOME_DEPOSITION_OF_NEW_CENPA_CONTAINING_NUCLEOSOMES_AT_THE_CENTROMERE",Pathway_size 64,0.5312
same,Observed: number of genes in pathway […]_UNKNOWN,Pathway_size 66,32
same,"Ratio observed/pathway size, […]_UNKNOWN",Pathway_size 66,0.4848
same,Observed: number of genes in pathway GCM_TPT1,Pathway_size 70,37
same,"Ratio observed/pathway size, GCM_TPT1",Pathway_size 70,0.5286
same,Observed: number of genes in pathway REACTOME_MEIOTIC_SYNAPSIS,Pathway_size 71,35
same,"Ratio observed/pathway size, REACTOME_MEIOTIC_SYNAPSIS",Pathway_size 71,0.493
same,Observed: number of genes in pathway REACTOME_TELOMERE_MAINTENANCE,Pathway_size 75,36
same,"Ratio observed/pathway size, REACTOME_TELOMERE_MAINTENANCE",Pathway_size 75,0.48
same,Observed: number of genes in pathway STRUCTURAL_CONSTITUENT_OF_RIBOSOME,Pathway_size 80,33
same,"Ratio observed/pathway size, STRUCTURAL_CONSTITUENT_OF_RIBOSOME",Pathway_size 80,0.4125
same,Observed: number of genes in pathway MIPS_RIBOSOME_CYTOPLASMIC,Pathway_size 81,42
same,Observed: number of genes in pathway REACTOME_AMYLOIDS,Pathway_size 81,49
same,"Ratio observed/pathway size, MIPS_RIBOSOME_CYTOPLASMIC",Pathway_size 81,0.5185
same,"Ratio observed/pathway size, REACTOME_AMYLOIDS",Pathway_size 81,0.6049
same,Observed: number of genes in pathway REACTOME_MEIOTIC_RECOMBINATION,Pathway_size 84,50
same,"Ratio observed/pathway size, REACTOME_MEIOTIC_RECOMBINATION",Pathway_size 84,0.5952
same,Observed: number of genes in pathway REACTOME_RNA_POL_I_TRANSCRIPTION,Pathway_size 86,50
same,"Ratio observed/pathway size, REACTOME_RNA_POL_I_TRANSCRIPTION",Pathway_size 86,0.5814
same,Observed: number of genes in pathway KEGG_RIBOSOME,Pathway_size 88,42
same,"Ratio observed/pathway size, KEGG_RIBOSOME",Pathway_size 88,0.4773
same,Observed: number of genes in pathway MORF_TPT1,Pathway_size 102,40
same,"Ratio observed/pathway size, MORF_TPT1",Pathway_size 102,0.3922
same,Observed: number of genes in pathway MIPS_NOP56P_ASSOCIATED_PRE_RRNA_COMPLEX,Pathway_size 104,44
same,"Ratio observed/pathway size, MIPS_NOP56P_ASSOCIATED_PRE_RRNA_COMPLEX",Pathway_size 104,0.4231
same,Observed: number of genes in pathway REACTOME_MEIOSIS,Pathway_size 112,50
same,"Ratio observed/pathway size, REACTOME_MEIOSIS",Pathway_size 112,0.4464
same,Observed: number of genes in pathway GCM_NPM1,Pathway_size 116,41
same,"Ratio observed/pathway size, GCM_NPM1",Pathway_size 116,0.3534
same,Observed: number of genes in pathway REACTOME_RNA_POL_I_RNA_POL_III_AND_MITOCHONDRIAL_TRANSCRIPTION,Pathway_size 119,50
same,"Ratio observed/pathway size, REACTOME_RNA_POL_I_RNA_POL_III_AND_MITOCHONDRIAL_TRANSCRIPTION",Pathway_size 119,0.4202
same,Observed: number of genes in pathway GNF2_EIF3S6,Pathway_size 121,41
same,"Ratio observed/pathway size, GNF2_EIF3S6",Pathway_size 121,0.3388
same,Observed: number of genes in pathway GCM_ACTG1,Pathway_size 124,39
same,"Ratio observed/pathway size, GCM_ACTG1",Pathway_size 124,0.3145
same,Observed: number of genes in pathway MORF_ACTG1,Pathway_size 138,53
same,"Ratio observed/pathway size, MORF_ACTG1",Pathway_size 138,0.3841
same,Observed: number of genes in pathway KEGG_SYSTEMIC_LUPUS_ERYTHEMATOSUS,Pathway_size 139,54
same,"Ratio observed/pathway size, KEGG_SYSTEMIC_LUPUS_ERYTHEMATOSUS",Pathway_size 139,0.3885
same,Observed: number of genes in pathway REACTOME_PEPTIDE_CHAIN_ELONGATION,Pathway_size 145,41
same,"Ratio observed/pathway size, REACTOME_PEPTIDE_CHAIN_ELONGATION",Pathway_size 145,0.2828
same,Observed: number of genes in pathway MORF_NME2,Pathway_size 154,48
same,"Ratio observed/pathway size, MORF_NME2",Pathway_size 154,0.3117
same,Observed: number of genes in pathway REACTOME_INFLUENZA_VIRAL_RNA_TRANSCRIPTION_AND_REPLICATION,Pathway_size 161,42
same,"Ratio observed/pathway size, REACTOME_INFLUENZA_VIRAL_RNA_TRANSCRIPTION_AND_REPLICATION",Pathway_size 161,0.2609
same,Observed: number of genes in pathway MORF_NPM1,Pathway_size 162,59
same,"Ratio observed/pathway size, MORF_NPM1",Pathway_size 162,0.3642
same,Observed: number of genes in pathway REACTOME_3_UTR_MEDIATED_TRANSLATIONAL_REGULATION,Pathway_size 166,43
same,"Ratio observed/pathway size, REACTOME_3_UTR_MEDIATED_TRANSLATIONAL_REGULATION",Pathway_size 166,0.259
same,Observed: number of genes in pathway REACTOME_NONSENSE_MEDIATED_DECAY_ENHANCED_BY_THE_EXON_JUNCTION_COMPLEX,Pathway_size 167,41
same,"Ratio observed/pathway size, REACTOME_NONSENSE_MEDIATED_DECAY_ENHANCED_BY_THE_EXON_JUNCTION_COMPLEX",Pathway_size 167,0.2455
same,Observed: number of genes in pathway REACTOME_SRP_DEPENDENT_COTRANSLATIONAL_PROTEIN_TARGETING_TO_MEMBRANE,Pathway_size 170,46
same,"Ratio observed/pathway size, REACTOME_SRP_DEPENDENT_COTRANSLATIONAL_PROTEIN_TARGETING_TO_MEMBRANE",Pathway_size 170,0.2706
same,Observed: number of genes in pathway REACTOME_INFLUENZA_LIFE_CYCLE,Pathway_size 195,47
same,"Ratio observed/pathway size, REACTOME_INFLUENZA_LIFE_CYCLE",Pathway_size 195,0.241
same,Observed: number of genes in pathway MORF_ANP32B,Pathway_size 197,43
same,"Ratio observed/pathway size, MORF_ANP32B",Pathway_size 197,0.2183
same,Observed: number of genes in pathway REACTOME_TRANSCRIPTION,Pathway_size 207,53
same,"Ratio observed/pathway size, REACTOME_TRANSCRIPTION",Pathway_size 207,0.256
same,Observed: number of genes in pathway REACTOME_TRANSLATION,Pathway_size 211,48
same,"Ratio observed/pathway size, REACTOME_TRANSLATION",Pathway_size 211,0.2275
same,Observed: number of genes in pathway MORF_UBE2I,Pathway_size 238,55
same,"Ratio observed/pathway size, MORF_UBE2I",Pathway_size 238,0.2311
same,Observed: number of genes in pathway MORF_RAN,Pathway_size 268,53
same,"Ratio observed/pathway size, MORF_RAN",Pathway_size 268,0.1978
same,Observed: number of genes in pathway MODULE_151,Pathway_size 318,61
same,"Ratio observed/pathway size, MODULE_151",Pathway_size 318,0.1918
same,Observed: number of genes in pathway MODULE_83,Pathway_size 320,65
same,"Ratio observed/pathway size, MODULE_83",Pathway_size 320,0.2031
same,Observed: number of genes in pathway MODULE_114,Pathway_size 338,64
same,"Ratio observed/pathway size, MODULE_114",Pathway_size 338,0.1893
same,Observed: number of genes in pathway HSIAO_HOUSEKEEPING_GENES,Pathway_size 389,87
same,"Ratio observed/pathway size, HSIAO_HOUSEKEEPING_GENES",Pathway_size 389,0.2236
same,Observed: number of genes in pathway MOOTHA_HUMAN_MITODB_6_2002,Pathway_size 429,66
same,"Ratio observed/pathway size, MOOTHA_HUMAN_MITODB_6_2002",Pathway_size 429,0.1538
same,Observed: number of genes in pathway MOOTHA_MITOCHONDRIA,Pathway_size 447,57
same,"Ratio observed/pathway size, MOOTHA_MITOCHONDRIA",Pathway_size 447,0.1275
same,Observed: number of genes in pathway REACTOME_METABOLISM_OF_PROTEINS,Pathway_size 496,69
same,"Ratio observed/pathway size, REACTOME_METABOLISM_OF_PROTEINS",Pathway_size 496,0.1391
same,Observed: number of genes in pathway KIM_BIPOLAR_DISORDER_OLIGODENDROCYTE_DENSITY_CORR_UP,Pathway_size 681,64
same,"Ratio observed/pathway size, KIM_BIPOLAR_DISORDER_OLIGODENDROCYTE_DENSITY_CORR_UP",Pathway_size 681,0.09398
same,Observed: number of genes in pathway MARTENS_TRETINOIN_RESPONSE_DN,Pathway_size 841,69
same,"Ratio observed/pathway size, MARTENS_TRETINOIN_RESPONSE_DN",Pathway_size 841,0.08205
same,Observed: number of genes in pathway GRADE_COLON_CANCER_UP,Pathway_size 870,75
same,"Ratio observed/pathway size, GRADE_COLON_CANCER_UP",Pathway_size 870,0.08621
same,Observed: number of genes in pathway DANG_BOUND_BY_MYC,Pathway_size 1102,88
same,"Ratio observed/pathway size, DANG_BOUND_BY_MYC",Pathway_size 1102,0.07985
same,Observed: number of genes in pathway BLALOCK_ALZHEIMERS_DISEASE_DN,Pathway_size 1237,81
same,"Ratio observed/pathway size, BLALOCK_ALZHEIMERS_DISEASE_DN",Pathway_size 1237,0.06548
same,Observed: number of genes in pathway CYTOPLASMIC_PART,Pathway_size 1383,96
same,"Ratio observed/pathway size, CYTOPLASMIC_PART",Pathway_size 1383,0.06941
same,Observed: number of genes in pathway PUJANA_BRCA1_PCC_NETWORK,Pathway_size 1651,107
same,"Ratio observed/pathway size, PUJANA_BRCA1_PCC_NETWORK",Pathway_size 1651,0.06481
same,Observed: number of genes in pathway CYTOPLASM,Pathway_size 2130,117
same,"Ratio observed/pathway size, CYTOPLASM",Pathway_size 2130,0.05493
